Assay results from patent US10966949B2, “Dietary supplementation to achieve oxy-redox homeostasis and epigenetic stability” (PARTHENOGEN SAGL, priority 2015, dated 2021).

Legend:
[1] = test system: Agouti gene Avy; experiment: Agouti-yellow coat colour of offspring of supplemented VY dams (DNA methylation marking); type: in vivo, mouse; details: dams' diet fortified during gestation, human-equivalent dose, n=10; standard diet 66%
Description: Mice embryos carrying the transgenic Agouti gene Avy will develop during gestation an Agouti-yellow color hair instead of the normal brown color proportionally to the lack of cytosine methylation at the relevant gene promoter. Mothers with a good DNA methylation function during early embryogenesis will generate offspring exerting less of the yellow color, thus the proportion of yellow color in the offspring can be used as a measure of efficiency of DNA methylation marking. Newborn mice are classified as Y0 to Y5 according to the amount of yellow phenotype, from Y0 for those without yellow hair up to Y5 in those fully colored in yellow. Dams of the inbred agouti mouse strain VY underwent diversified feeding during their gestation: their standard diet (n=10), or; their standard diet fortified with folic acid in amounts equivalent to a human dose of 400 μg daily (n=10), or; their standard diet fortified with the substances in amounts equivalent to a human dose of 1 tablet per day of the formulation of EXAMPLE 1 (n=10). The offspring was classified Y0 to Y5 according to the amount of yellow colour. In the standard diet group the rate of offspring abundant Agouti yellow color (Y3 to Y5) was 66%, which decreased to 45% in the offspring from folic acid supplementation and to 31% in the offspring supplemented by the composition according to the invention.

[2] = test system: patients with type 2 diabetes mellitus; experiment: Adjuvant treatment to metformin in newly diagnosed type 2 diabetes mellitus; type: in vivo, human
Description: Thirty male patients newly diagnosed as affected by type 2 diabetes mellitus and starting a treatment with metformin, 1-2 gr daily, where randomly assigned to a 3-month adjuvant treatment with the composition formulated according to EXAMPLE 1, 1 tablet per day, or no treatment.

[3] = test system: plasma total antioxidant capacity (TAC); experiment: Plasma total antioxidant capacity (TAC) in regular smokers, cross-over; type: in vivo, human; details: ten male smokers
Procedure: Ten male subjects regularly smoking 15 cigarettes per day or more assumed the composition formulated according to EXAMPLE 1, 1 tablet per day during 1 week or 1000 mg daily of vitamin C by the oral route for 1 week according to a cross-over design with a 1 month wash-out interval between the treatments. The plasma total antioxidant capacity (TAC) was measured by means of a colorimetric assay kit before and after each of the treatment periods in all subjects. The average TAC values expressed as μmol trolox equivalents increased from 472±36 to 522±32 (increase=11%) following one week supplementation with the powerful direct antioxidant vitamin C and from 468±31 to 565±36 (increase=21%) following one week supplementation with the composition according to the invention. Thus, the TAC increase provided by the aforementioned composition was of the same magnitude, if not higher, than that induced by full doses of a potent direct antioxidant.

[4] = test system: plasma total antioxidant capacity (TAC); experiment: Plasma total antioxidant capacity (TAC) in healthy young males, cross-over; type: in vivo, human
Procedure: Ten young male subjects aged 18-25, following a healthy diet and virtually free from diseases assumed the composition formulated according to EXAMPLE 1, 1 tablet per day, for 1 week or 1000 mg daily of vitamin C by the oral route for 1 week according to a cross-over design with a 1 month wash-out interval between the treatments. The plasma total antioxidant capacity (TAC) was measured by means of a colorimetric assay kit before and after each of the treatment periods in all subjects. The average TAC values expressed as μmol trolox equivalents increased from 572±33 to 646±20 (increase=13%) following one week supplementation with the powerful direct antioxidant vitamin C whereas it remained stable (from 570±31 to 578±26, increase=1%) following one week supplementation with the composition according to the invention.

[5] = all patients on metformin 1-2 gr daily, 3 months

For `Nc1nc2ncc(CNc3ccc(C(=O)N[C@@H](CCC(=O)O)C(=O)O)cc3)nc2c(=O)[nH]1` [folic acid], which “rate of offspring with abundant Agouti yellow color (Y3 to Y5)” value [1] is on record?
The value was 45%.

What does the source list for `CN(C)C(=N)N=C(N)N` [metformin]?
plasma homocysteine at the end of treatment [2, 5]: 14.4 ± 2.1 µmol/L; serum HbA1C percentage at end [2, 5]: 9.2%; serum HbA1C percentage at baseline ([2]; all patients on metformin 1-2 gr daily, baseline): 10.4%; plasma homocysteine at baseline ([2]; male type 2 diabetes patients starting metformin 1-2 gr daily, baseline): 12.04 ± 1.6 µmol/L

Which results are given for `O=C1O[C@H]([C@@H](O)CO)C(O)=C1O` [vitamin C]?
average plasma TAC before treatment ([3]; 15 cigarettes per day or more, before one week supplementation): 472±36 μmol trolox equivalents; average plasma TAC after treatment ([3]; after one week supplementation): 522±32 μmol trolox equivalents; TAC increase ([3]; one week supplementation): 11%; average plasma TAC after treatment ([4]; ten healthy young males aged 18-25, after one week supplementation): 646±20 μmol trolox equivalents; average plasma TAC before treatment ([4]; ten healthy young males aged 18-25, before one week supplementation): 572±33 μmol trolox equivalents; TAC increase ([4]; ten healthy young males, one week supplementation): 13%
